Laboratory results published in patent US9987381B2, “Radioligands for imaging the LPA-1 receptor” (BRISTOL-MYERS SQUIBB COMPANY, priority 2013, dated 2018).
Where two headings read alike, the source gives them in different places.

Legend:
Type in all cases: in vivo, rhesus monkeys
[1] = molecular target: T1, LPA1 (Macaca mulatta, UniProt H9EN64); experiment: PET test-retest study of [11C]-BMT-136088 binding
T1 construct: from tissue; host or cells: lung of living anaesthetised rhesus monkeys (in vivo PET)
Procedure: (§1) This study was divided in two parts: First, the test-retest variability of [^11C]-BMT-136088 binding in a within-day protocol. Second, a saturation study was performed to evaluate the fraction of specific and non-specific binding for the radiotracer [^11C]-BMT-136088, the in vivo equilibrium dissociation constant KD, and the radiopharmaceutical tracer-dose limit (to achieve less than 5% self-occupancy).
In the test-retest study, each animal was scanned twice per day, with the same interval between the two scans as in the blocking study, to measure the variability of [^11C]-BMT-136088 binding parameter and assess if there was a systematic difference in binding parameters between the two scan times (for example due to the prolonged anesthesia). The study was performed in the same animals as the blocking study.
(§2) Two rhesus monkeys were included in the blocking, test-retest, and saturation studies: one male, one female; age=4.8±0.8 y; weight=8.6±0.4 kg. Studies in the same animal were separated by at least 2 weeks to allow the animal to recover from anesthesia and other effects. Four rhesus monkeys (2M, 2F) were included in the dosimetry study.
(§3) Following a low-dose, CT scan used for attenuation correction and to delineate the lung regions of interest, [^11C]-BMT-136088 was injected using a computer-control pump with a bolus plus infusion protocol, with an initial 1-min bolus and a ˜119-min infusion. The volume injected during the initial bolus represented 100 min (Kbol) worth of infusion in the blocking and test-retest study, and 300 min worth of infusion in the saturation study.
Beginning at the start of each injection, a 120-minute time-of-flight list-mode acquisition on the mCT PET/CT scanner (Siemens Medical Solutions USA, Inc.) was performed. Dynamic PET scan data were reconstructed with corrections for point-spread function, attenuation, normalization, scatter, randoms, and dead time using a 3D OP-OSEM TOF algorithm. PET images were reconstructed into 33 frames, with the following frame timing: 6×30 sec; 3×1 min; 2×2 min; 22×5 min. Each frame contained 400×400×111 (x,y,z) voxels (2.04×2.04×2.0 mm). […]

[2] = molecular target: T1, LPA1; experiment: PET saturation study of [11C]-BMT-136088 in lung (bolus plus infusion, VT by MA1/EA); conditions: for ED50: rhesus monkey
Procedure: as §1
In the saturation study, each animal was scanned twice a day, with varying mass of [^11C]-BMT-136088, from tracer dose to near-saturating doses. The interval between the two scans was the same as in the blocking study and test-retest study. For the first scans, tracer doses were used in 3 out of 4 study days. On the fourth day, the first scan dose was not performed at tracer dose, but the mass of the first dose scan was substantially lower than the second dose to minimize the influence of the first injection on the second scan data.
as §2, §3
(§4) Beginning at the start of each injection, a 120-minute time-of-flight list-mode acquisition on the mCT PET/CT scanner (Siemens Medical Solutions USA, Inc.) was performed. Dynamic PET scan data were reconstructed with corrections for point-spread function, attenuation, normalization, scatter, randoms, and dead time using a 3D OP-OSEM TOF algorithm. PET images were reconstructed into 33 frames, with the following frame timing: 6×30 sec; 3×1 min; 2×2 min; 22×5 min. Each frame contained 400×400×111 (x,y,z) voxels (2.04×2.04×2.0 mm).
The lungs were semi-automatically delineated using CT images collected before each PET scan. • First, the lungs were segmented based on the CT image values in Hounsfield scale (−1000<HU<−200), using a region growing algorithm and seeds manually placed at the center of the lungs; • The trachea, and occasionally the air in the stomach were manually excluded from the segmentation results; • The segmented lung ROIs were divided into right and left ROIs by manually selecting a plane separating the left and right side of the animal (animals were lying in supine position, but this plane was not always perfectly vertical); • The right and left ROIs were further divided into three smaller ROIs: lower lung, mid lung, and upper lung. The upper lung was defined as the part of the lung above the heart; the lower lung was defined as the part of the lung that is less than 5 slices (˜1 cm) above the topmost axial slice where the top of the liver can be seen.
The lung time-activity curves (TACs) were computed for each ROI and expressed in kBq/cm^3. The lung ROI contains lung tissue, blood, and air. In particular, the lung density may change from scan to scan due to (slight) changes in animal positioning, which can change the left-right location of the heart and change which lung tends to be compressed by the heart. Therefore an estimate of the density of lung ROIs was estimated to convert the TAC units from kBq/cm^3 to kBq/g, as follows. The CT images were converted from Hounsfield scale to linear attenuation values (in cm^−1) for 511 KeV photons. These attenuation values were assumed to be linearly proportional to mass for soft tissue (e.g., lung and heart) and the heart density was assumed to be 1 g/cm^3. […]

[3] = molecular target: T1, LPA1; experiment: PET blocking study of [11C]-BMT-136088 with BMS-986020; conditions: from BPND 1.1±0.1
Procedure: For the blocking data reanalyzed here, each animal was scanned twice during the administration of [^11C]-BMT-136088, using a bolus plus infusion (B+I) protocol: at baseline first, then during the administration of the blocking drug, BMS-986020, also using a bolus plus infusion protocol.
In the blocking study, BMS-986020 was administered i.v. using a 10-min bolus ([…]) followed by a ˜230 min infusion (0.25 mg/kg/hr) for a total dose of 1.224±0.015 mg/kg.
as §2, §3, §4
Blood samples for PK for each blockade study session were obtained at −1, 60, 90, 120, 150, 210, 240 and 270 minutes after the start of BMS-986020 bolus plus infusion. Red cells were precipitated at 3200 rpm for 10 minutes at 10° C.; the plasma was divided into two aliquots and frozen at −80° C. until shipped for analysis. […]

[4] = Plasma concentration and plasma free fraction in saturation study
Procedure: as §2
Blood samples were also collected for the last three saturation studies at −5, 60, 90 and 120 minutes after the start of [^11C]-BMT-136088 bolus plus infusion with non-tracer doses (n=4). Red cells were precipitated at 3200 rpm for 10 minutes at 10° C.; the plasma was divided into two aliquots and frozen at −80° C. until shipped for analysis. The goal of these measurements was to compare the plasma concentrations estimated from measurements of [^11C]-BMT-136088 and its metabolism using gamma counters and HPLC systems, to that from measurement of unlabeled BMT-136088 using mass spectrometry.

T1 sequence (H9EN64 1-364): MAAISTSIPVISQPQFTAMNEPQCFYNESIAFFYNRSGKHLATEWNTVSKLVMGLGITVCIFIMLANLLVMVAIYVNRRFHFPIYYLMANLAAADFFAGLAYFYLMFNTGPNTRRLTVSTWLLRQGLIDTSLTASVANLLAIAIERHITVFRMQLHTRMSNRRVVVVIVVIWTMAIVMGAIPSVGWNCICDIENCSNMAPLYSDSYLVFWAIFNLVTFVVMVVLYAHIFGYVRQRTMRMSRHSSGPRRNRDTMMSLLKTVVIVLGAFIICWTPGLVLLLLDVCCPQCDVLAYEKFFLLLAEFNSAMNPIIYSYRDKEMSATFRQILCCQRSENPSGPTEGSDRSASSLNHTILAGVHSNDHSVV

Cc1noc(-c2ccc(-c3ccc(C4(C(=O)O)CC4)cc3)cc2)c1NC(=O)O[C@H](C)c1cccc([11CH3])c1 [[^11C]-BMT-136088, [11C]-(R)-1-(4′-(3-Methyl-4-(((1-(m-tolyl)ethoxy)carbonyl)amino)isoxazol-5-yl)-[1,1′-biphenyl]-4-yl)cyclopropanecarboxylic acid]
test-retest variability ([1]; EA, density and blood activity corrections, left ROIs mid and upper lung): −2±10%
test-retest variability ([1]; EA, density and blood activity corrections, right ROIs mid and upper lung): −1±11%
test-retest variability ([1]; MA1, animal A2, left ROIs mid and upper lung): −5%
test-retest variability ([1]; MA1, animal A2, right ROIs mid and upper lung): −8%
IC50 ([2]; MA1 and all corrections, VT versus plasma concentration): 28 ± 12 nM
binding potential BPND ([2]; MA1 with all corrections, lung): 1.1±0.1
fraction of tracer in lung (excluding blood) specifically bound to LPA1 sites ([2]; at equilibrium): about 50%
Kd ([2]; from plasma IC50 and plasma free fraction, read-out: in vivo KD): 0.055 nM
ED50 ([2]; MA1 with all corrections, read-out: ED50): 0.036 ± 0.015 mg/kg
ED50 ([2]; all ED50 estimates, range over analysis methods, read-out: ED50 estimates (all methods)): 0.036 to 0.056 mg/kg
tracer dose limit ([2]; to occupy less than 5% of LPA1 sites, based on ED50): 1.9 µg/kg
maximum expected blockade effect [3]: 52%
fraction unbound ([4]; both sexes, rhesus monkey, plasma, intravenous, measured during the saturation studies): 0.002
slope of plasma concentration vs injected mass ([4]; saturation study, linear increase): 0.92 nM/(μg/kg)
